Test results as given in US8329390B2, “Detection of transmembrane potentials using N,N,N′-trialkyl thiobarbituric acid-derived polymethine oxonols” (priority 2004, dated 2012).

Assay: Absorption and fluorescence spectral properties
Format: physicochemical
Excerpt: For all the syntheses, all starting materials and reagents were of the highest purity available (Aldrich Chemical Company, Milwaukee, Wis.) and used without further purification, except where noted. Solvents were HPLC grade (Fisher Scientific, Pittsburgh, Pa.) and were dried over activated molecular sieves. NMR spectra were acquired on a Varian Gemini 200 MHz spectrometer. Absorption and fluorescence spectra were taken respectively on a Cary 50 BIO and Varain Eclipse (Varian, Inc., Palo Alto, Calif.).

For CN1C(=O)C(=C/C=C/c2c(O)[nH]c(=S)n(C)c2=O)C(=O)N(C)C1=S [Compound 4], the absorption maximum was 532 nm, the emission maximum was 555 nm and the ext. coefficient (at 532 nm) was 175,000 M^−1 cm^−1. The quantum yield (in octanol) was > 0.2.
